Source: patent US20220356174A1, “PYRIDIN-2-ONE COMPOUNDS USEFUL AS SMARCA2 ANTAGONISTS” (Epizyme, Inc., priority 2018, published 2022)

Experiments:
FL-SMARCA4 = FL-SMARCA4 (Homo sapiens, UniProt P51532); assay: SMARCA4 ATPase activity assay (ADP-Glo, chicken mononucleosome substrate); settings: FL-SMARCA4 IC50, Table 3.2; ATPase assay, enzyme 5 nM, ATP 250 uM, chicken mononucleosome 10 nM, 30 min preincubation
[1] = molecular target: T1, FL-SMARCA2 (full-length human SMARCA2 isoform 1) (Homo sapiens, UniProt P51531); assay: SMARCA2 ATPase activity assay (ADP-Glo, chicken mononucleosome substrate); assay type: biochemical; settings: Table 3.1; ATPase assay, enzyme 5 nM, ATP 250 uM, chicken mononucleosome 10 nM, 30 min preincubation
T1 construct: FLAG tag (YKDDDDK) (C); made in house; host or cells: Sf21 insect cells (baculovirus, pFastBacI)

A549 cells = assay: High-throughput proliferation (HTP) assay for A549 cells (CellTiter-Glo, 7 days); assay type: cell-based; settings: Homo sapiens, 168 h, read-out: A549 SMARCA2 IC50
Protocol: Thawing vials: A549 cells (ATCC #CCL-185™) were thawed from a cryovial containing approximately 1.6×10^6 cells frozen in 70% F12K medium, 20% HI-FBS and 10% DMSO. Cells were thawed by submerging the bottom half of the vial in a 37° C. water bath and gently flicked until almost thawed. The cells were transferred into a 15 mL conical tube containing 9 mL of F12K medium+10% HI-FBS and then centrifuged at 200×g for 4 min before drawing off the media without disturbing the cell pellet in order to remove the DMSO. The cells were resuspended again in 15 mL of F12K fresh complete media+10% HI-FBS and grown up in a T75 flask at 37° C. with 5% CO2 Incubator. Viability was measured to obtain baseline.
Frozen stock vials preparation: The cell culture was transferred to a 50 mL conical tube, spun down to remove medium, and resuspended at 1-2×10^6 cells/mL in complete medium containing 10% DMSO. The culture was then stored for 24 hours at −80 degree C., (with the initial rate of freezing is −1 degree C. per minute in a freezing container), then transferred and stored in liquid nitrogen.
Routine subculture: Sub-confluent cultures (70-80%) were split every 4 days, seeding out at 1-2×10^6 cells/75 cm^2.
Day 0: Assay ready plates were prepared by dispensing 50 nL of compound or DMSO in the appropriate wells of 384-well white CulturPlates using Echo550. Using the Multiflo, A549 cells were plated at 50 μL/well in F12K complete media+10% HI-FBS+1% pen/strep at cell density determined [1,250 cells/mL (62.5 cells/well)] from growth curve.
Treated cells were incubated at 37° C., 5% CO2, relative humidity >90% for 7 days. CellTiter-Glo (CTG) ATP detection reagent was prepared according to manufacturer's specifications. Cell assay plates were removed from the incubator and brought to room temperature (RT). Using the MultiDrop liquid handler, 30 μL of CTG were added per well. Plates were placed on the multidrop dispenser shake for 5 seconds at room temperature (RT). Plates were incubated for 30 minutes in the dark at RT before measuring luminescence using the Envison2104.
Data analysis: Using the DMSO control wells as the 0% inhibition (high signal) control and the 10 μM Doxorubicin control wells as the 100% inhibition (low signal) control, percent inhibition EC50s (inflection point) and IC50 s were calculated for the compound dose responses.

Chain of FL-SMARCA4 (P51532 whole entry, canonical isoform): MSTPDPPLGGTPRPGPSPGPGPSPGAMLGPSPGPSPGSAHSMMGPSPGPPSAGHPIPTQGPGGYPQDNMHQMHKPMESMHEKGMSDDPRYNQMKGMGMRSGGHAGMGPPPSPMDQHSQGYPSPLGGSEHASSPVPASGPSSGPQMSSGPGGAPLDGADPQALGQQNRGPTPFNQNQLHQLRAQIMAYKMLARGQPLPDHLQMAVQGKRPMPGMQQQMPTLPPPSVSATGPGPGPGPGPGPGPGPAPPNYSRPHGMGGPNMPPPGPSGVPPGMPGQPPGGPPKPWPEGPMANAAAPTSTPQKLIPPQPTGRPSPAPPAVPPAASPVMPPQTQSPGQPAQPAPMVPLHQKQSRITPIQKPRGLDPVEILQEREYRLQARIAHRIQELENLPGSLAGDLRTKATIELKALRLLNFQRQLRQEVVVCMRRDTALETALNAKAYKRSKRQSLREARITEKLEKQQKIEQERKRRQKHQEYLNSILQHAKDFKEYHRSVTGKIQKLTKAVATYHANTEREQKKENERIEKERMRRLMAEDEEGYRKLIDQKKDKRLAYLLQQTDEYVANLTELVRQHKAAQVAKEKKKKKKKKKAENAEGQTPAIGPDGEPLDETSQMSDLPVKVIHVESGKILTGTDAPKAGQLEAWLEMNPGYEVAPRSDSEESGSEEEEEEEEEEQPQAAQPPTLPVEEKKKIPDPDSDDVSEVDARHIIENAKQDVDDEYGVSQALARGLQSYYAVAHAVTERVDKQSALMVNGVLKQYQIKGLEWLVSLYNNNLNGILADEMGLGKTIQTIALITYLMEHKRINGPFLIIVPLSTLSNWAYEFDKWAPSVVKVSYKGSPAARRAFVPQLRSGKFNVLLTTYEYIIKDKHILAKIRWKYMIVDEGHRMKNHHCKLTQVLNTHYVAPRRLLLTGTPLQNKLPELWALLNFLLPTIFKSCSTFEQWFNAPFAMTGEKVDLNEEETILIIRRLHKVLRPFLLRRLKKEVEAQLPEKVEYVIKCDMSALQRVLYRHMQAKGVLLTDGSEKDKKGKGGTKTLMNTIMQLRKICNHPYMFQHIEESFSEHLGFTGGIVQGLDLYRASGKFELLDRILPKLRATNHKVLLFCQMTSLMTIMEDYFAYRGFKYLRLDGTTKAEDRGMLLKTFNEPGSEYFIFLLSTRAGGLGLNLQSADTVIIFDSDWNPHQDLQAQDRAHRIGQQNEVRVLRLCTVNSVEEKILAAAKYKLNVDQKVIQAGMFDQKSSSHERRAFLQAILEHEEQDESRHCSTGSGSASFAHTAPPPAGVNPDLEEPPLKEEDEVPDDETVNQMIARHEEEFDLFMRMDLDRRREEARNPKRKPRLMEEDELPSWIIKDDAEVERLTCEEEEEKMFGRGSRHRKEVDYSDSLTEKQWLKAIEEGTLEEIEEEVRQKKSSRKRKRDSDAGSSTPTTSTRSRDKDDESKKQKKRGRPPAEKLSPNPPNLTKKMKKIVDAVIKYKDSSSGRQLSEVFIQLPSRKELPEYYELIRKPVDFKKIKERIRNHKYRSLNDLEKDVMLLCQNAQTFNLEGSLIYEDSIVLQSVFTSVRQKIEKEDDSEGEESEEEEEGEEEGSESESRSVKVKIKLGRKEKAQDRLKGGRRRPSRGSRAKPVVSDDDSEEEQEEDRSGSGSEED
T1 sequence (P51531 with tags, fused parts or gaps): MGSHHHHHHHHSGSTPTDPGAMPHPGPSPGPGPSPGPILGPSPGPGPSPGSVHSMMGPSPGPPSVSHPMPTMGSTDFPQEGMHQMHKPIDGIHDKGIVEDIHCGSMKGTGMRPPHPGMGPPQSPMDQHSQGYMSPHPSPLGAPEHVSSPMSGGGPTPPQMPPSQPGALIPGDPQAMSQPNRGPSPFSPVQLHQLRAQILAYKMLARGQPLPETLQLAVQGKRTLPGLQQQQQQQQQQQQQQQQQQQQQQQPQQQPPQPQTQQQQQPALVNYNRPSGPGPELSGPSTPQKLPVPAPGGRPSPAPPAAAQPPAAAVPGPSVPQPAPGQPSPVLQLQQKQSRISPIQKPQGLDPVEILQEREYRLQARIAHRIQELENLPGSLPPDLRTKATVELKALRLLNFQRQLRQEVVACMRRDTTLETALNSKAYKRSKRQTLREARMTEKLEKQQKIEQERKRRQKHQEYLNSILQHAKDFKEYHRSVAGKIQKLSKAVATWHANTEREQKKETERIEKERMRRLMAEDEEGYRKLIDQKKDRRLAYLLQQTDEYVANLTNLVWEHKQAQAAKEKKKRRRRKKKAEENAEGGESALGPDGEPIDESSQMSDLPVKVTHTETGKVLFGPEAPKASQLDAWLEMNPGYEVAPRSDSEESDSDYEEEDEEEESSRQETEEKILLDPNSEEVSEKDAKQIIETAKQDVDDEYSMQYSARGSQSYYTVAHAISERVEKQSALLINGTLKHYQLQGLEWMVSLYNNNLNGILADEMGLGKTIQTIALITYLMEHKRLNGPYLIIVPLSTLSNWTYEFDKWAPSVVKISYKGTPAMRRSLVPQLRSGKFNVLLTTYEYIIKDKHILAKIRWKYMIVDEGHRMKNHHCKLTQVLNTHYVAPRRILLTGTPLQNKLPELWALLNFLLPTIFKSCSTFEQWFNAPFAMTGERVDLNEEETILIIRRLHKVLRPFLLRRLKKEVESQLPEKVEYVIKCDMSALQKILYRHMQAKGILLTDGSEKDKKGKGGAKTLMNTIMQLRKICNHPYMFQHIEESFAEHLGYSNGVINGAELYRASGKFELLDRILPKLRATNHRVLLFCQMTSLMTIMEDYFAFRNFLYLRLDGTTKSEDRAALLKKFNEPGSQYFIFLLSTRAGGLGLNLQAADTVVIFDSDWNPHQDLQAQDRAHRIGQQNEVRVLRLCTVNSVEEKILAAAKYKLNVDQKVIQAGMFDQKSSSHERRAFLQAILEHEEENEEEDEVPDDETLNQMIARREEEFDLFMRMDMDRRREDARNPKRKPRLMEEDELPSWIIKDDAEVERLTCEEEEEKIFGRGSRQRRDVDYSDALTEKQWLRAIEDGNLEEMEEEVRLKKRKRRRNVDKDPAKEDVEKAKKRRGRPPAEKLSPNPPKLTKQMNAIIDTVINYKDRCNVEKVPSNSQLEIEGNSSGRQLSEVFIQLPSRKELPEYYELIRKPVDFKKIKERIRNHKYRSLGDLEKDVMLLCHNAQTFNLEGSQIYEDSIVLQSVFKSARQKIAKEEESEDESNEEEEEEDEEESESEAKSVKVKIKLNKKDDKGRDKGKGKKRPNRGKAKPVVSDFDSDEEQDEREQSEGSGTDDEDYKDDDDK

Structure (SMILES)	IC50 (FL-SMARCA4)	IC50 [1]	IC50 (A549 cells)
N#Cc1cc(C(=O)Nc2ccc(=O)n(CCF)c2)sc1C#N [Compound 182]	0.127 µM	0.0355 µM	≥ 20 µM
N#Cc1ncc(C(=O)Nc2cc(C#N)c(=O)n(CCF)c2)s1 [Compound 203]	0.118 µM	0.0407 µM	≥ 20 µM
N#Cc1cc(C(=O)Nc2cc(F)c(=O)n(CC(F)(F)F)c2)sc1Cl [Compound 207]	0.342 µM	0.0729 µM	0.892 µM
Cn1c(C(=O)Nc2cc(F)c(=O)n(CCF)c2)cnc1C#N [Compound 220]	1.93 µM	0.488 µM	≥ 20 µM
N#Cc1[nH]c(C(=O)Nc2ccc(=O)n(CCF)c2)cc1Cl [Compound 231]	0.544 µM	0.142 µM	≥ 20 µM
N#Cc1[nH]c(C(=O)Nc2ccc(=O)n(CC(F)(F)F)c2)cc1Cl [Compound 234]	1.74 µM	0.478 µM	≥ 20 µM
CCn1cc(NC(=O)c2cc(Cl)c(C#N)[nH]2)cc(F)c1=O [Compound 235]	0.272 µM	0.0591 µM	≥ 20 µM
CCn1cc(NC(=O)c2cc(Cl)c(C#N)[nH]2)cc(Cl)c1=O [Compound 236]	0.555 µM	0.125 µM	≥ 20 µM
N#Cc1[nH]c(C(=O)Nc2cc(Cl)c(=O)n(CC(F)(F)F)c2)cc1Cl [Compound 237]	0.863 µM	0.201 µM	≥ 20 µM
N#Cc1[nH]c(C(=O)Nc2cc(C#N)c(=O)n(CCF)c2)cc1Cl [Compound 238]	0.879 µM	0.232 µM	7.27 µM
N#Cc1cc(C(=O)Nc2cc(Cl)c(=O)n(CCF)c2)[nH]c1Cl [Compound 240]	2.39 µM	0.626 µM	≥ 20 µM
N#Cc1[nH]c(C(=O)Nc2cc(F)c(=O)n(CC(F)(F)F)c2)cc1Cl [Compound 242]	0.168 µM	0.0389 µM	17.4 µM
O=C(Nc1cc(F)c(=O)n(CC(F)F)c1)c1cc(Cl)c(C(F)F)s1 [Compound 296]	0.52 µM	0.094 µM	–
CCn1cc(NC(=O)c2cc(C#CCO)c(Cl)s2)ccc1=O [Compound 300]	5.96 µM	2.74 µM	–
O=C(Nc1cc(F)c(=O)n(CCF)c1)c1ccc(-c2ccn[nH]2)s1 [Compound 312]	> 50 µM	> 50 µM	–
O=C(Nc1cc(F)c(=O)n(CCF)c1)c1ccc(-c2cccnc2)s1 [Compound 313]	> 50 µM	> 50 µM	–

Structure (SMILES)	IC50 (FL-SMARCA4)	IC50 [1]	IC50 (A549 cells)
O=C(Nc1cc(F)c(=O)n(CCF)c1)c1ccc(-c2ccncc2)s1 [Compound 314]	> 50 µM	> 50 µM	–
O=C(Nc1cc(F)c(=O)n(CCF)c1)c1ccc(-c2nccs2)s1 [Compound 317]	> 50 µM	> 50 µM	–
O=C(Nc1cc(F)c(=O)n(CC(F)F)c1)c1cc(-c2nnco2)c(Cl)s1 [Compound 318]	13.5 µM	2.88 µM	–
N#Cc1cc(C(=O)Nc2ccc(=O)n(CC(F)F)c2)sc1Cl [Compound 320]	0.562 µM	0.151 µM	–
O=C(Nc1cc(F)c(=O)n(CC(F)F)c1)c1cc(Cl)no1 [Compound 326]	17.2 µM	3.78 µM	–
O=C(Nc1cc(F)c(=O)n(CC(F)F)c1)c1cc(C#Cc2cccnc2)c(Cl)s1 [Compound 329]	0.111 µM	0.0312 µM	–
CC(F)Cn1cc(NC(=O)c2cc(Cl)c(C(F)(F)F)s2)cc(F)c1=O (centres unmarked) [Compound 331]	0.924 µM	0.172 µM	–
Nc1c(C(=O)Nc2cc(F)c(=O)n(CC(F)F)c2)sc(Cl)c1Cl [Compound 332]	2.2 µM	0.331 µM	–
CCn1cc(NC(=O)c2cc(C#Cc3ccncc3)c(Cl)s2)ccc1=O [Compound 334]	0.337 µM	0.182 µM	–
CNc1c(C(=O)Nc2cc(F)c(=O)n(CC(F)F)c2)sc(Cl)c1Cl [Compound 335]	45.1 µM	7.46 µM	–
O=C(Nc1cc(C(F)(F)F)c(=O)n(CC(F)F)c1)c1cc(F)c(Cl)s1 [Compound 336]	5.87 µM	1.24 µM	> 10 µM
O=C(Nc1cc(Cl)c(=O)n(CC(F)F)c1)c1cc(F)c(Cl)s1 [Compound 337]	0.104 µM	0.0337 µM	0.769 µM
N#Cc1cc(NC(=O)c2cc(F)c(Cl)s2)cn(CC(F)F)c1=O [Compound 338]	0.363 µM	0.089 µM	3.21 µM
CC(O)C#Cc1cc(C(=O)Nc2cc(F)c(=O)n(CC(F)F)c2)sc1Cl (centres unmarked) [Compound 339]	2.32 µM	0.943 µM	> 10 µM
CC(CF)n1cc(NC(=O)c2cc(Cl)c(C(F)(F)F)s2)cc(F)c1=O (centres unmarked) [Compound 340]	4.89 µM	0.695 µM	> 10 µM

Next, values leading:

IC50 (FL-SMARCA4)	IC50 [1]	IC50 (A549 cells)	Structure (SMILES)
10.2 µM	1.31 µM	≥ 20 µM	Cc1ncc(C(=O)Nc2cc(F)c(=O)n(CCF)c2)s1 [Compound 222]
> 50 µM	18.4 µM	≥ 20 µM	COc1ncc(C(=O)Nc2cc(F)c(=O)n(CCF)c2)s1 [Compound 223]
0.111 µM	0.0249 µM	15.5 µM	N#Cc1[nH]c(C(=O)Nc2cc(F)c(=O)n(CCF)c2)cc1Cl [Compound 232]
0.623 µM	0.131 µM	5.46 µM	O=C(Nc1cc(F)c(=O)n(CCF)c1)c1cc(Cl)c(F)s1 [Compound 251]
2.1 µM	0.381 µM	≥ 20 µM	O=C(Nc1cc(F)c(=O)n(CCF)c1)c1cnc([N+](=O)[O-])s1 [Compound 275]
> 50 µM	> 50 µM	–	CN(C)C(=O)c1cc(C(=O)Nc2cc(F)c(=O)n(CCF)c2)sc1Cl [Compound 299]
> 50 µM	16.7 µM	–	CS(=O)(=O)c1sc(C(=O)Nc2cc(F)c(=O)n(CCF)c2)cc1Cl [Compound 301]
> 50 µM	> 50 µM	> 10 µM	CS(=O)(=O)c1csc(C(=O)Nc2cc(F)c(=O)n(CCF)c2)c1 [Compound 302]
> 50 µM	> 50 µM	–	NC(=O)c1ccc(C(=O)Nc2cc(F)c(=O)n(CCF)c2)s1 [Compound 303]
> 50 µM	> 50 µM	–	CNC(=O)c1ccc(C(=O)Nc2cc(F)c(=O)n(CCF)c2)s1 [Compound 304]
> 50 µM	> 50 µM	–	CNC(=O)c1cc(C(=O)Nc2cc(F)c(=O)n(CCF)c2)sc1C(F)(F)F [Compound 305]
> 50 µM	> 50 µM	–	CN(C)C(=O)c1ccc(C(=O)Nc2cc(F)c(=O)n(CCF)c2)s1 [Compound 306]
3.27 µM	0.94 µM	–	CS(=O)(=O)c1cc(C(=O)Nc2cc(F)c(=O)n(CCF)c2)sc1Cl [Compound 307]
> 50 µM	23.3 µM	–	O=C(Nc1cc(F)c(=O)n(CCF)c1)c1cc(CO)c(Cl)s1 [Compound 308]
> 50 µM	29.6 µM	–	NS(=O)(=O)c1sc(C(=O)Nc2cc(F)c(=O)n(CCF)c2)cc1Cl [Compound 309]
> 50 µM	> 50 µM	–	NS(=O)(=O)c1cc(C(=O)Nc2cc(F)c(=O)n(CCF)c2)sc1Cl [Compound 310]
> 50 µM	> 50 µM	–	Cn1cnc(-c2ccc(C(=O)Nc3cc(F)c(=O)n(CCF)c3)s2)c1 [Compound 311]
> 50 µM	> 50 µM	–	CC(=O)Nc1sc(C(=O)Nc2cc(F)c(=O)n(CCF)c2)cc1Cl [Compound 315]
> 50 µM	> 50 µM	–	Cn1ccnc1-c1ccc(C(=O)Nc2cc(F)c(=O)n(CCF)c2)s1 [Compound 316]
16.6 µM	1.32 µM	–	O=C(Nc1cc(F)c(=O)n(CCF)c1)c1cc(Cl)c(CC(F)(F)F)s1 [Compound 319]
> 50 µM	> 50 µM	–	O=C(Nc1cc(F)c(=O)n(CCF)c1)c1ccc(C(F)(F)CO)s1 [Compound 322]
0.108 µM	0.0384 µM	–	O=C(Nc1cc(F)c(=O)n(CCF)c1)c1cc(C#Cc2cccnc2)c(Cl)s1 [Compound 328]
9.28 µM	0.668 µM	–	CSc1cc(C(=O)Nc2cc(F)c(=O)n(CC(F)F)c2)sc1Cl [Compound 341]
